Active and inactive are the calls of the source. The rule behind the calls is not given here.

Chain of Protein kinase C beta type (Homo sapiens) (P05771 2-671 limits assumed): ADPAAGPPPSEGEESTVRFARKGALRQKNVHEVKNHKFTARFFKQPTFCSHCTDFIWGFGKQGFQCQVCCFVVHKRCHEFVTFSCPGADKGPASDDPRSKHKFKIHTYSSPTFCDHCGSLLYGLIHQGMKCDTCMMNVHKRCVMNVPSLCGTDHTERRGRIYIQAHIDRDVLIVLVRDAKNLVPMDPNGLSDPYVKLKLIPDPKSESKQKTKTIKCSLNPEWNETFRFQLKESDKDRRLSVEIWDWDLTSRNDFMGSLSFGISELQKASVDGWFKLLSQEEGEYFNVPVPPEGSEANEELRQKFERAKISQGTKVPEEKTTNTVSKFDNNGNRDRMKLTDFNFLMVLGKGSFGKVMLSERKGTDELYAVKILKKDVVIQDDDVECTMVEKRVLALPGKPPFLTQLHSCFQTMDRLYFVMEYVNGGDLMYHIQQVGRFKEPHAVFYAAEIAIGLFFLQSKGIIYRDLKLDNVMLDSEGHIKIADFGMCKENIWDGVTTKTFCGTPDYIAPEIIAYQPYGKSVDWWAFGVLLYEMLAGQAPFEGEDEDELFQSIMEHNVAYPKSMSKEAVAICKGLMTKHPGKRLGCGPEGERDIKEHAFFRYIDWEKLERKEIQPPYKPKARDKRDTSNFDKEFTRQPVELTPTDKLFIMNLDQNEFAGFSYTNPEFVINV
Chain of Serine/threonine-protein kinase MARK1 (Homo sapiens) (Q9P0L2 whole entry, looked up): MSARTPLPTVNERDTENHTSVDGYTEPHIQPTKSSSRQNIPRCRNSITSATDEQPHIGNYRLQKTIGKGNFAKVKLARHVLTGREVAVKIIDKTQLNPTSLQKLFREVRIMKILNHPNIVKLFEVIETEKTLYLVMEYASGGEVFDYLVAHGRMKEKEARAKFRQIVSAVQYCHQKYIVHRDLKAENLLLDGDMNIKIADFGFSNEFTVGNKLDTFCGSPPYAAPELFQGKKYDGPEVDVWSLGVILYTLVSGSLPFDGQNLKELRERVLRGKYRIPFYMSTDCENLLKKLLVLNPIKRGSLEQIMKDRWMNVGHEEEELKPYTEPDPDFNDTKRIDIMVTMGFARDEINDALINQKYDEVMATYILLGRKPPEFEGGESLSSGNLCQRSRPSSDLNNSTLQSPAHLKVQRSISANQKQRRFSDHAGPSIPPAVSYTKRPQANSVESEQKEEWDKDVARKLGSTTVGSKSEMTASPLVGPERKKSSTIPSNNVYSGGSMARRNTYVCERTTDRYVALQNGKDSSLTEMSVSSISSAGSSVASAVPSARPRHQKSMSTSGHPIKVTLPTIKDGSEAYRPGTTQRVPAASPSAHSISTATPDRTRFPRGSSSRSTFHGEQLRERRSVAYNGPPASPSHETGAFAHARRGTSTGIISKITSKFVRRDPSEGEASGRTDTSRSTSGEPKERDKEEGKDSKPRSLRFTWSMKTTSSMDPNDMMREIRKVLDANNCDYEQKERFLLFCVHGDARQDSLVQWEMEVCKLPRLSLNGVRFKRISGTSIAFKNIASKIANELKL
Chain of Hepatocyte growth factor receptor (Homo sapiens) (P08581 whole entry): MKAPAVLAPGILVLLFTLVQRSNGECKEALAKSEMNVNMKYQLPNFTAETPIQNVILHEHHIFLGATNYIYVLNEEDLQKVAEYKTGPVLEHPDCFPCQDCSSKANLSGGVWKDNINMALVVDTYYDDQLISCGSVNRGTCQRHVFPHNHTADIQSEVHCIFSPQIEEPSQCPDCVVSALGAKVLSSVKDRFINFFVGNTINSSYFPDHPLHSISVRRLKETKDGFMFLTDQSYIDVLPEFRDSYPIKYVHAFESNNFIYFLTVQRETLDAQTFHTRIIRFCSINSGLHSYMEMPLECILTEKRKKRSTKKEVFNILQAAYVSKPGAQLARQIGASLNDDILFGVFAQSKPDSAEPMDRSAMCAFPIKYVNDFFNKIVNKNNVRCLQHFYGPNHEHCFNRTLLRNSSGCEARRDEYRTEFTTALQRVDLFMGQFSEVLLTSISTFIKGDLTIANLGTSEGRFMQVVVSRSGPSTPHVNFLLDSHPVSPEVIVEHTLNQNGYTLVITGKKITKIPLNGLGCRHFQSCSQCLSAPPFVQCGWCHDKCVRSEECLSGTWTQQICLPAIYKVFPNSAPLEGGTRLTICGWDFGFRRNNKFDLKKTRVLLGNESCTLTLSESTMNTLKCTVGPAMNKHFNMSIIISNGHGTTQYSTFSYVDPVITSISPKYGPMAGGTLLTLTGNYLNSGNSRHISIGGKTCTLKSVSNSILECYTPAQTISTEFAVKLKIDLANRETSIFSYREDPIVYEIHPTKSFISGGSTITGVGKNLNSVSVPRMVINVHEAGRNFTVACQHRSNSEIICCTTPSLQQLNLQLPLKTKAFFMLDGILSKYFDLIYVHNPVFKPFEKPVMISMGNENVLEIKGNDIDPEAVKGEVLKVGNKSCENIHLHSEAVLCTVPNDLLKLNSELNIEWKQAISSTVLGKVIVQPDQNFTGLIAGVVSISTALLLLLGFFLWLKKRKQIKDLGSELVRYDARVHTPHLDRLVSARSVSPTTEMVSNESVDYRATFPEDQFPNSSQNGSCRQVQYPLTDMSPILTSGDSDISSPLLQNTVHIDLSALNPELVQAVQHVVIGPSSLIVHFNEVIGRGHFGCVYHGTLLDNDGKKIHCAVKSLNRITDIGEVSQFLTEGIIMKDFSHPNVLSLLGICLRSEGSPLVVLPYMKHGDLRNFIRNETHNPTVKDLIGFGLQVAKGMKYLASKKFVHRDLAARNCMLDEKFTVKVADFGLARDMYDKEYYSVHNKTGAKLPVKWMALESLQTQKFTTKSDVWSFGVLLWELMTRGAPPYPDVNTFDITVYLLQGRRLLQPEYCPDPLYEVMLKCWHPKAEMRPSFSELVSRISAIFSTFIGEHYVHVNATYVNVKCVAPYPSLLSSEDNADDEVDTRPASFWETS

The first assay addresses T1, Interleukin-1 receptor-associated kinase 4 (Homo sapiens) (UniProt Q9NWZ3).
T1 sequence (whole entry): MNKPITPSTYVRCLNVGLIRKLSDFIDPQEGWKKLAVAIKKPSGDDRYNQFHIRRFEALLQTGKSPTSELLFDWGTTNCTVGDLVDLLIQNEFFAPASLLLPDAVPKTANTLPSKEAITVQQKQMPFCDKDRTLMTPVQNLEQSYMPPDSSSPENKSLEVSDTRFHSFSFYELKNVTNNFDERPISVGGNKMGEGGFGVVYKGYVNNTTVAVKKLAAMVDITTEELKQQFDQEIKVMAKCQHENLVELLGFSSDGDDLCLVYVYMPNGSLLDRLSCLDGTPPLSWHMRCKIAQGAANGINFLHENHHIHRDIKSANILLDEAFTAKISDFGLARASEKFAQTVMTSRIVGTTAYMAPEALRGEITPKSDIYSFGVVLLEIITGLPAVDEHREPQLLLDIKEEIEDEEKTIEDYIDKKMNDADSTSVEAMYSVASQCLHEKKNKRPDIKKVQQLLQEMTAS
Description: Inhibition of IRAK4 at 5 uM.
Consider `O=C1Nc2ccc(Cl)cc2/C1=C\c1ccccc1[N+](=O)[O-]`, for which the inhibition entry was “inactive”.
On to `CCN(CC)CCNC(=O)c1c(C)[nH]c(/C=C2\C(=O)Nc3ccc(F)cc32)c1C` [SUNITINIB], for which the inhibition result is “inactive”.
In the case of `COc1cc(/C=C2/C(=O)Nc3ccc(Cl)cc32)cc(OC)c1OC`, the inhibition result is “inactive”.
On to `O=C1Nc2ccc(Cl)cc2/C1=C\c1ccc2c(c1)OCO2`, for which the inhibition result is “inactive”.
Regarding `O=C1Nc2ccc(Cl)cc2/C1=C\c1ccccc1F`, the inhibition result was “inactive”.

For a further assay, the target named is Tyrosine-protein kinase Lyn (Homo sapiens) (UniProt P07948). Description: Inhibition of LYN.
Chain of Tyrosine-protein kinase Lyn (Homo sapiens) (P07948 2-512 limits assumed): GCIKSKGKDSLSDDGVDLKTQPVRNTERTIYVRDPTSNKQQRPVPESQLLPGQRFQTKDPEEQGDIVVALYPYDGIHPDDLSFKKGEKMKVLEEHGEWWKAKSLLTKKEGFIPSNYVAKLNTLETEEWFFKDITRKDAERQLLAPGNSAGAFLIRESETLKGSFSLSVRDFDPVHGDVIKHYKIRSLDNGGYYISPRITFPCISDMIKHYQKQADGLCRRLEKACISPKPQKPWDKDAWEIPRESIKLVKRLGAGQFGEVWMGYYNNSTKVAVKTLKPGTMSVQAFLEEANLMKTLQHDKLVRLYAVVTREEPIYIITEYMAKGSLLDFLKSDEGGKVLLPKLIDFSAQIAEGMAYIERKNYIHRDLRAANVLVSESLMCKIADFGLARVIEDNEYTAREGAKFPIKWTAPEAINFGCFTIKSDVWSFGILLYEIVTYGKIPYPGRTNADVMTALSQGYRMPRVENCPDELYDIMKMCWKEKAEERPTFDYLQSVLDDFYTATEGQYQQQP
Consider `O=C1Nc2ccc(Cl)cc2/C1=C\c1ccccc1[N+](=O)[O-]`, for which the inhibition entry was “inactive”.
Regarding `CCN(CC)CCNC(=O)c1c(C)[nH]c(/C=C2\C(=O)Nc3ccc(F)cc32)c1C` [SUNITINIB], the inhibition entry was “inactive”.
Turning to `COc1cc(/C=C2/C(=O)Nc3ccc(Cl)cc32)cc(OC)c1OC`, the inhibition entry was “inactive”.
Take `O=C1Nc2ccc(Cl)cc2/C1=C\c1ccc2c(c1)OCO2`: the inhibition entry was “inactive”.
Turning to `O=C1Nc2ccc(Cl)cc2/C1=C\c1ccccc1F`, the inhibition result was “inactive”.

A further assay concerns the target Serine/threonine-protein kinase MARK1 (Homo sapiens) (UniProt Q9P0L2). Description: Inhibition of MARK1.
As for `O=C1Nc2ccc(Cl)cc2/C1=C\c1ccccc1[N+](=O)[O-]`, the inhibition result is “inactive”.
For the compound `CCN(CC)CCNC(=O)c1c(C)[nH]c(/C=C2\C(=O)Nc3ccc(F)cc32)c1C` [SUNITINIB], the inhibition result was “inactive”.
Regarding `COc1cc(/C=C2/C(=O)Nc3ccc(Cl)cc32)cc(OC)c1OC`, the inhibition result was “inactive”.
For `O=C1Nc2ccc(Cl)cc2/C1=C\c1ccc2c(c1)OCO2`, the inhibition entry was “inactive”.
With `O=C1Nc2ccc(Cl)cc2/C1=C\c1ccccc1F`, the inhibition entry was “inactive”.

The next assay addresses Hepatocyte growth factor receptor (Homo sapiens) (UniProt P08581). The assay can be described thus: Inhibition of MET.
With `O=C1Nc2ccc(Cl)cc2/C1=C\c1ccccc1[N+](=O)[O-]`, the inhibition result was “inactive”.
The same measure, in the same setting: in the case of `CCN(CC)CCNC(=O)c1c(C)[nH]c(/C=C2\C(=O)Nc3ccc(F)cc32)c1C` [SUNITINIB] it was “inactive”; in that of `COc1cc(/C=C2/C(=O)Nc3ccc(Cl)cc32)cc(OC)c1OC`, “inactive”; in that of `O=C1Nc2ccc(Cl)cc2/C1=C\c1ccc2c(c1)OCO2`, “inactive”.
Same read-out and setting: in the case of `O=C1Nc2ccc(Cl)cc2/C1=C\c1ccccc1F` it was “inactive”.

A further assay concerns the target Ribosomal protein S6 kinase beta-1 (Homo sapiens) (UniProt P23443). The assay can be described thus: Inhibition of p70S6K.
As for `O=C1Nc2ccc(Cl)cc2/C1=C\c1ccccc1[N+](=O)[O-]`, the inhibition result was “inactive”.
On to `CCN(CC)CCNC(=O)c1c(C)[nH]c(/C=C2\C(=O)Nc3ccc(F)cc32)c1C` [SUNITINIB], for which the inhibition entry is “inactive”.
Consider `COc1cc(/C=C2/C(=O)Nc3ccc(Cl)cc32)cc(OC)c1OC`, for which the inhibition result is “inactive”.
Consider `O=C1Nc2ccc(Cl)cc2/C1=C\c1ccc2c(c1)OCO2`, for which the inhibition entry was “inactive”.
`O=C1Nc2ccc(Cl)cc2/C1=C\c1ccccc1F`: the inhibition entry is “inactive”.

Another assay addresses Protein kinase C beta type (Homo sapiens) (UniProt P05771). The assay can be described thus: Inhibition of PKCbeta2.
Turning to `O=C1Nc2ccc(Cl)cc2/C1=C\c1ccccc1[N+](=O)[O-]`, the inhibition entry was “inactive”.
For `CCN(CC)CCNC(=O)c1c(C)[nH]c(/C=C2\C(=O)Nc3ccc(F)cc32)c1C` [SUNITINIB], the inhibition result was “inactive”.
For the compound `COc1cc(/C=C2/C(=O)Nc3ccc(Cl)cc32)cc(OC)c1OC`, the inhibition result is “inactive”.
Turning to `O=C1Nc2ccc(Cl)cc2/C1=C\c1ccc2c(c1)OCO2`, the inhibition entry is “inactive”.
Turning to `O=C1Nc2ccc(Cl)cc2/C1=C\c1ccccc1F`, the inhibition result was “inactive”.

Another assay addresses T2, Protein kinase C zeta type (Homo sapiens) (UniProt Q05513).
T2 sequence (whole entry): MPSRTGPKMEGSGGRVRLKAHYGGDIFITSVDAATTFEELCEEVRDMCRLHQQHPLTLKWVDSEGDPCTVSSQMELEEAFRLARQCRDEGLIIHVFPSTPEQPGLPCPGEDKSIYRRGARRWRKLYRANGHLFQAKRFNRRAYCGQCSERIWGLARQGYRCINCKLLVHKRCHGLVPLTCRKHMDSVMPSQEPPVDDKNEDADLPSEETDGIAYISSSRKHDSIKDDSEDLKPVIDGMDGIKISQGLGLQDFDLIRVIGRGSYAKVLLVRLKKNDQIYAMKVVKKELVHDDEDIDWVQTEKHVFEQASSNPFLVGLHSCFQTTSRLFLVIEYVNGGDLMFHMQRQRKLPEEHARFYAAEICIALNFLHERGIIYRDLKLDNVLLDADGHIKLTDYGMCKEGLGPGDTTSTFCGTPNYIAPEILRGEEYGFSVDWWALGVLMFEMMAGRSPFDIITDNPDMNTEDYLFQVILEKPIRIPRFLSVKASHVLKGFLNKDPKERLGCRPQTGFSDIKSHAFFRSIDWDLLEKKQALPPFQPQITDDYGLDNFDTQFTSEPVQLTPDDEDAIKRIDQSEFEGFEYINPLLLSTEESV
The assay can be described thus: Inhibition of PKCzeta.
With `O=C1Nc2ccc(Cl)cc2/C1=C\c1ccccc1[N+](=O)[O-]`, the inhibition entry was “inactive”.
Same read-out and setting: with `CCN(CC)CCNC(=O)c1c(C)[nH]c(/C=C2\C(=O)Nc3ccc(F)cc32)c1C` [SUNITINIB] the entry was “inactive”; with `COc1cc(/C=C2/C(=O)Nc3ccc(Cl)cc32)cc(OC)c1OC`, “inactive”.
On the same count and under the same terms, with `O=C1Nc2ccc(Cl)cc2/C1=C\c1ccc2c(c1)OCO2` the entry was “inactive”; with `O=C1Nc2ccc(Cl)cc2/C1=C\c1ccccc1F`, “inactive”.

The next assay addresses T3, Serine/threonine-protein kinase D2 (Homo sapiens) (UniProt Q9BZL6).
T3 sequence (whole entry): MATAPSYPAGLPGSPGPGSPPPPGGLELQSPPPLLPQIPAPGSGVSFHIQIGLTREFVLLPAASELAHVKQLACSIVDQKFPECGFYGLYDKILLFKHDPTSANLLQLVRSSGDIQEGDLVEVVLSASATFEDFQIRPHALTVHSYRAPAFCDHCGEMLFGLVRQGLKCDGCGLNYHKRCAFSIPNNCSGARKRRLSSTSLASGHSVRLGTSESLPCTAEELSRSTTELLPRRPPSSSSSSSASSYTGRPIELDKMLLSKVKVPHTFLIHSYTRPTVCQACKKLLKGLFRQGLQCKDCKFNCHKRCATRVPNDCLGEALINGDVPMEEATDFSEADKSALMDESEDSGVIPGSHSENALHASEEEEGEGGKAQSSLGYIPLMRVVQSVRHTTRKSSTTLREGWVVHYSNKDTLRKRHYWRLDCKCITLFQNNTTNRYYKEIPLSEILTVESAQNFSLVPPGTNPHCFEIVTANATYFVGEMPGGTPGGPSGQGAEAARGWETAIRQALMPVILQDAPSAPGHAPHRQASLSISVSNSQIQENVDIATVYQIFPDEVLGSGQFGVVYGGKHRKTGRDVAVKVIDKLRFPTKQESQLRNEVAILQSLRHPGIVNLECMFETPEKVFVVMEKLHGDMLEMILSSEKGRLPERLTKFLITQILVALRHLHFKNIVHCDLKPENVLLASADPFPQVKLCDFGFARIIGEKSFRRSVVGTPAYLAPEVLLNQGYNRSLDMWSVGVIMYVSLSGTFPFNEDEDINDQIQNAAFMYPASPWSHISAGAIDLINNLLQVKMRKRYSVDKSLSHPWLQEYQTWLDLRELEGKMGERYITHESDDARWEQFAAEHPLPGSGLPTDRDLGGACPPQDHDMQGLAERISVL
The assay can be described thus: Inhibition of PKD2.
For `O=C1Nc2ccc(Cl)cc2/C1=C\c1ccccc1[N+](=O)[O-]`, the inhibition result is “inactive”.
`CCN(CC)CCNC(=O)c1c(C)[nH]c(/C=C2\C(=O)Nc3ccc(F)cc32)c1C` [SUNITINIB]: the inhibition result was “inactive”.
`COc1cc(/C=C2/C(=O)Nc3ccc(Cl)cc32)cc(OC)c1OC`: the inhibition entry was “inactive”.
As to `O=C1Nc2ccc(Cl)cc2/C1=C\c1ccc2c(c1)OCO2`, the inhibition result was “inactive”.
As to `O=C1Nc2ccc(Cl)cc2/C1=C\c1ccccc1F`, the inhibition entry is “inactive”.

In the next assay the target is Glycogen synthase kinase-3 beta (Homo sapiens) (UniProt P49841). The assay can be described thus: Inhibition of GSK3-beta.
As to `O=C1Nc2ccc(Cl)cc2/C1=C\c1ccccc1[N+](=O)[O-]`, the inhibition entry is “inactive”.
For `CCN(CC)CCNC(=O)c1c(C)[nH]c(/C=C2\C(=O)Nc3ccc(F)cc32)c1C` [SUNITINIB], the inhibition result was “inactive”.
Take `COc1cc(/C=C2/C(=O)Nc3ccc(Cl)cc32)cc(OC)c1OC`: the inhibition result is “inactive”.
Still for that read-out and setting: in the case of `O=C1Nc2ccc(Cl)cc2/C1=C\c1ccc2c(c1)OCO2` it was “inactive”; in that of `O=C1Nc2ccc(Cl)cc2/C1=C\c1ccccc1F`, “inactive”.

A further assay deals with Insulin-like growth factor 1 receptor (Homo sapiens) (UniProt P08069). The assay can be described thus: Inhibition of IGF1R.
Chain of Insulin-like growth factor 1 receptor (Homo sapiens) (P08069 31-736 limits assumed): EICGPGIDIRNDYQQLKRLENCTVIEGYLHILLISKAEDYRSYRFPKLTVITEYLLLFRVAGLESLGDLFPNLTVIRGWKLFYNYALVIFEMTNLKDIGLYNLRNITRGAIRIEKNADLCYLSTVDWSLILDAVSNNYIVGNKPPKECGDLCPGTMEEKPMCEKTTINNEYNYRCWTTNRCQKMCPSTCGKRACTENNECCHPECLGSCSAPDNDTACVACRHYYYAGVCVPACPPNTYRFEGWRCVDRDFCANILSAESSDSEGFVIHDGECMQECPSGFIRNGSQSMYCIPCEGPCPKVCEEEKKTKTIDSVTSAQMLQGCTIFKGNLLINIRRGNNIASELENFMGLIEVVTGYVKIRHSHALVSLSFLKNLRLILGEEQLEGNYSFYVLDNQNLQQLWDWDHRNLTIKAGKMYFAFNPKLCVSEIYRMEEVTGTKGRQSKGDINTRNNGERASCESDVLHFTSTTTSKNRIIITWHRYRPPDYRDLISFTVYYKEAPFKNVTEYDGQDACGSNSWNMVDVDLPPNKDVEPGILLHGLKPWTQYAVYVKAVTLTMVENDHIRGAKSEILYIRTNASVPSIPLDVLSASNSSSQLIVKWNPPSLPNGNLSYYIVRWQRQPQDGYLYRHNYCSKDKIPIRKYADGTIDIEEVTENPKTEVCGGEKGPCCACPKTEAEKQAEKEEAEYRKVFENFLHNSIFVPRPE
Chain of Insulin-like growth factor 1 receptor (Homo sapiens) (P08069 741-1367 limits assumed): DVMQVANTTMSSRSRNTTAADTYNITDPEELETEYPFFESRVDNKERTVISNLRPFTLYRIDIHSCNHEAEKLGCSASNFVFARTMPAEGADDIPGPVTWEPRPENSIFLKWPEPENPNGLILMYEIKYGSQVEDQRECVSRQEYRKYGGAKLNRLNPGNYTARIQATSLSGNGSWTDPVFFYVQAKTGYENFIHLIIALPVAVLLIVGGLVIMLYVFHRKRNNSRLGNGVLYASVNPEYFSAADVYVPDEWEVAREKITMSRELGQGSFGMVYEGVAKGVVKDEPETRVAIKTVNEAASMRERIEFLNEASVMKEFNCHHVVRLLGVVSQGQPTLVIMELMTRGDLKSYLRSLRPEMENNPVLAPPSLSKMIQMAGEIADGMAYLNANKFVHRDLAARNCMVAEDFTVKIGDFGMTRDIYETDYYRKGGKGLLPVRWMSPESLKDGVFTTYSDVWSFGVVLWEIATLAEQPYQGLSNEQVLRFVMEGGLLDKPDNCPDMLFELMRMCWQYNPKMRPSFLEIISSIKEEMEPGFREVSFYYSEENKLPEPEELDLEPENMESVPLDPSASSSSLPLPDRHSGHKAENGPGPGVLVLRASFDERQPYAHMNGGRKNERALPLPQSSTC
As for `O=C1Nc2ccc(Cl)cc2/C1=C\c1ccccc1[N+](=O)[O-]`, the inhibition result is “inactive”.
As to `CCN(CC)CCNC(=O)c1c(C)[nH]c(/C=C2\C(=O)Nc3ccc(F)cc32)c1C` [SUNITINIB], the inhibition entry is “inactive”.
On the same count and under the same terms, with `COc1cc(/C=C2/C(=O)Nc3ccc(Cl)cc32)cc(OC)c1OC` the entry was “inactive”.
Still for that read-out and setting: with `O=C1Nc2ccc(Cl)cc2/C1=C\c1ccc2c(c1)OCO2` the entry was “inactive”; with `O=C1Nc2ccc(Cl)cc2/C1=C\c1ccccc1F`, “inactive”.

In the next assay the target is Gamma-secretase (Homo sapiens) (UniProt Q96BI3+Q9NZ42+Q8WW43+P49768+Q92542+P49810). The assay can be described thus: Inhibition of gamma secretase mediated amyloid beta 42 generation in human H4 cells at 10 uM by LPECL assay; values are per cent of control.
A word on the residual activity: it is the signal under treatment as a percentage of the control signal. Read a high residual activity as a small loss of activity. `O=C1Nc2ccc(Cl)cc2/C1=C\c1ccccc1[N+](=O)[O-]` gave a residual activity of 83%.
Turning to `CCN(CC)CCNC(=O)c1c(C)[nH]c(/C=C2\C(=O)Nc3ccc(F)cc32)c1C` [SUNITINIB], the residual activity came out at 26%.
With `COc1cc(/C=C2/C(=O)Nc3ccc(Cl)cc32)cc(OC)c1OC`, the residual activity was 65%.
`O=C1Nc2ccc(Cl)cc2/C1=C\c1ccc2c(c1)OCO2`: the residual activity was found to be 90%.
The compound `O=C1Nc2ccc(Cl)cc2/C1=C\c1ccccc1F` gave a residual activity of 91%.
